According to ChEMBL document CHEMBL3046939, “Design, synthesis, and anti-allergic activities of novel (R)(-)-1-[(4-chlorophenyl)phenyl methyl]piperazine derivatives” (2012):

Legend:
Format in all cases: functional
Cavia porcellus [1] = assay: Antipruritic activity in Cavia porcellus (guinea pig) histamine phosphate-induced itching model assessed as increase of total amount of histamine phosphate level at 50 mg/kg, administered 1 hr before histamine phosphate challenge with food relative to levocetirizine
Cavia porcellus [2] = assay: Antipruritic activity in Cavia porcellus (guinea pig) histamine phosphate-induced itching model assessed as increase of total amount of histamine phosphate level at 50 mg/kg, administered 1 hr before histamine phosphate challenge with food relative to control
Cavia porcellus [3] = assay: Antiasthmatic activity in Cavia porcellus (guinea pig) histamine phosphate-induced asthmatic model assessed as latent period of asthma at 50 mg/kg, administered 1 hr before histamine phosphate challenge with food (reference value: 115.4 +/- 126.2 /s)

SMILES	Activity (Cavia porcellus [1]) [%]	Activity (Cavia porcellus [2]) [%]	Time (Cavia porcellus [3]) [s]
O=S(=O)(Nc1ccc(Cl)nn1)c1ccc(NCCN2CCN([C@H](c3ccccc3)c3ccc(Cl)cc3)CC2)cc1	103.46	883.81	255.5
Cc1cc(C)nc(NS(=O)(=O)c2ccc(NCCCN3CCN([C@H](c4ccccc4)c4ccc(Cl)cc4)CC3)cc2)n1	-0.15	382.83	136.8
C[C@H](NCCCN1CCN([C@H](c2ccccc2)c2ccc(Cl)cc2)CC1)C(=O)O	113.8	933.8	307.6
Nc1ccc(S(=O)(=O)NCCCN2CCN([C@H](c3ccccc3)c3ccc(Cl)cc3)CC2)cc1	107.15	901.67	269.4
Nc1ccc(S(=O)(=O)N(CCN2CCN([C@H](c3ccccc3)c3ccc(Cl)cc3)CC2)c2ccc(Cl)nn2)cc1	-78	6.4	151.2
O=S(=O)(Nc1nccs1)c1ccc(NCCN2CCN([C@H](c3ccccc3)c3ccc(Cl)cc3)CC2)cc1	-18.8	292.61	360
O=C(O)CNCCCN1CCN([C@H](c2ccccc2)c2ccc(Cl)cc2)CC1	22.71	493.36	360
Nc1ccc(S(=O)(=O)NCCN2CCN([C@H](c3ccccc3)c3ccc(Cl)cc3)CC2)cc1	2.55	395.87	266.2
Nc1ccc(S(=O)(=O)N(CCCN2CCN([C@H](c3ccccc3)c3ccc(Cl)cc3)CC2)c2ccc(Cl)nn2)cc1	10.1	432.37	301.8
Nc1ccc(S(=O)(=O)N(CCCN2CCN([C@H](c3ccccc3)c3ccc(Cl)cc3)CC2)c2nccs2)cc1	2.44	395.34	240.3
COc1ccc(NS(=O)(=O)c2ccc(NCCCN3CCN([C@H](c4ccccc4)c4ccc(Cl)cc4)CC3)cc2)nn1	43.42	593.5	295.6
COc1ccc(NS(=O)(=O)c2ccc(NCCN3CCN([C@H](c4ccccc4)c4ccc(Cl)cc4)CC3)cc2)nn1	-21.49	279.65	360
O=S(=O)(Nc1ncccn1)c1ccc(NCCN2CCN([C@H](c3ccccc3)c3ccc(Cl)cc3)CC2)cc1	217.8	1436.72	246.4
COc1ccc(N(CCN2CCN([C@H](c3ccccc3)c3ccc(Cl)cc3)CC2)S(=O)(=O)c2ccc(N)cc2)nn1	62.62	686.34	288
Cc1cc(C)nc(NS(=O)(=O)c2ccc(NCCN3CCN([C@H](c4ccccc4)c4ccc(Cl)cc4)CC3)cc2)n1	-60.28	92.07	167.4
O=S(=O)(Nc1nccs1)c1ccc(NCCCN2CCN([C@H](c3ccccc3)c3ccc(Cl)cc3)CC2)cc1	-18.04	296.34	324.8
O=S(=O)(Nc1ccc(Cl)nn1)c1ccc(NCCCN2CCN([C@H](c3ccccc3)c3ccc(Cl)cc3)CC2)cc1	82.74	783.62	184.1
O=S(=O)(Nc1ncccn1)c1ccc(NCCCN2CCN([C@H](c3ccccc3)c3ccc(Cl)cc3)CC2)cc1	39.93	576.61	229.2
Nc1ccc(S(=O)(=O)N(CCN2CCN([C@H](c3ccccc3)c3ccc(Cl)cc3)CC2)c2nccs2)cc1	9.4	429.01	184.8
